A short description of the series: in vitro. As to conditions: human, hela cells, % viability.

From paper PMC12040169 (PLOS Biology, 2025) come the findings set out here.

For `Cc1cccc(CNC(=O)CC2CCN(Cc3cccc(C(F)(F)F)c3)CC2)n1` [CBK285950], the viability at 28.5 h, 10 µM turned out to be 105%.
Take `OC1CCC(Nc2cncc(-c3cccc4ccccc34)n2)CC1` (centres unmarked) [CBK065902]: the viability at 28.5 h, 10 µM was determined as 90.2%.
For `Cc1csc(C(Cc2ccsc2)NC(=O)Cn2cccn2)n1` (centres unmarked) [CBK282831], the viability at 28.5 h, 10 µM was 89.7%.
Regarding `COc1ccnc(N2CCN(C(=O)c3cncnc3C)CC2)n1` [CBK304894], the viability at 28.5 h, 10 µM was determined as 104%.
Turning to `O=C(c1c(F)cccc1F)N1CCC(c2cc3cccnc3[nH]2)CC1` [CBK284997], the viability at 28.5 h, 10 µM was 91.5%.
Take `Cc1cc(-c2cc(=O)n(CCc3ccccc3)nc2-c2ccco2)on1` [CBK282879]: the viability at 28.5 h, 10 µM is 105%.
As to `CNC(=O)CSc1ncnc2c1cnn2-c1ccc(F)cc1` [CBK287633], the viability at 28.5 h, 10 µM came to 94.4%.
For the compound `O=C(NC(C(=O)N/N=C/c1cccc(O)c1)c1n[nH]c(=O)c2ccccc12)c1ccccc1` (centres unmarked) [CBK262853], the viability at 28.5 h, 10 µM worked out at 89%.
Regarding `Cn1ccnc1CN1CCCC(CCC(=O)Nc2ccccc2F)C1` (centres unmarked) [CBK307462], the viability at 28.5 h, 10 µM is 92.1%.
For `CC(CNC(=O)Cn1nc(C(F)(F)F)c2c1CCC2)N1CCCC1` (centres unmarked) [CBK282212], the viability at 28.5 h, 10 µM was 89.9%.
`CC(Sc1ccccc1)C(=O)NC(C)(C)C` (centres unmarked) [CBK026610]: the viability at 28.5 h, 10 µM was found to be 116%.
Consider `CC(=O)Nc1ccc(-c2nc3ncccc3o2)cc1C` [CBK288132], for which the viability at 28.5 h, 10 µM is 91.1%.
As to `Cc1cc2nc(SCc3nc4ccccc4[nH]3)[nH]c2cc1C` [CBK264233], the viability at 28.5 h, 10 µM stood at 97.4%.
Take `N#Cc1cccc(-c2ccc3c(c2)COC2(CCN(C(=O)Cc4c[nH]c5ccccc45)CC2)O3)c1` [CBK116346]: the viability at 28.5 h, 10 µM (bulk resorufin, single well) stood at 99.1%.
Regarding `O=C(Cn1c(-c2ccc(F)cc2)cc2cccnc21)NC1CC1` [CBK284861], the viability at 28.5 h, 10 µM was determined as 103%.
Consider `O=P(O)(COc1ccccc1)COc1ccccc1` [CBK261620], for which the viability at 28.5 h, 10 µM stood at 88.8%.
As for `Cc1cccc(OCc2nnc(SCC(=O)Nc3cc(C(F)(F)F)ccc3Cl)o2)c1C` [CBK267204], the viability at 28.5 h, 10 µM worked out at 85.3%.
The same measure, in the same setting: then `Cn1cc(C2CCCN2C(=O)Cc2csc3ccccc23)cn1` (centres unmarked) [CBK305066], with 102%; and `OCCNc1nccnc1Cl` [CBK089793], with 114%.
Take `CCc1c(C)nc(C)nc1N1CCCn2nc(C(O)C3CC3)cc2C1` (centres unmarked) [CBK306778]: the viability at 28.5 h, 10 µM came to 100%.
As for `CCNc1nccnc1-c1ccccc1Cl` [CBK037313], the viability at 28.5 h, 10 µM was 79.9%.
For the compound `CN(C)CCN(C)C(=O)c1ccc(-c2cccc(N(C)C)c2)nc1N(C)C` [CBK106077], the viability at 28.5 h, 10 µM stood at 89.6%.
As to `CN1CCN(C(C(=O)O)c2c[nH]c3cc(OCc4ccccc4)ccc23)CC1` (centres unmarked) [CBK286654], the viability at 28.5 h, 10 µM came out at 84.6%.
`COc1ccc(N(CC(=O)Nc2cccnc2)S(=O)(=O)c2ccccc2)cc1` [CBK262236]: the viability at 28.5 h, 10 µM was 91.6%.
Take `Cc1noc(C)c1S(=O)(=O)Nc1ccc(C(=O)Nc2ccc(F)cc2)cc1` [CBK034410]: the viability at 28.5 h, 10 µM was 95.1%.
On to `CC(=O)Cn1nnnc1C` [CBK020588], for which the viability at 28.5 h, 10 µM was 99.6%.
Take `CCn1c(C)nc2cc(NC(=O)c3oc(C)nc3C)ccc21` [CBK281881]: the viability at 28.5 h, 10 µM came out at 106%.
As to `Cc1ccc(-c2nc(C)c(C(=O)NCc3ccnc(-n4ccnc4)c3)s2)o1` [CBK298322], the viability at 28.5 h, 10 µM came out at 105%.
On the same count and under the same terms, then `O=C(Cn1nc2n(c1=O)CCCC2)NCc1ccccc1Cl` [CBK304647], with 104%; and `CN1CCN(C(=O)c2ccccc2NC(=O)NC2CCCCC2)CC1` [CBK269771], with 94%.
As for `O=C1NC(=O)C(CC(=O)N2CCC3(CC2)OCc2cc(-c4ccccc4)ccc2O3)N1` (centres unmarked) [CBK061111], under “bulk resorufin, single well”, the viability at 28.5 h, 10 µM was 85.6%.
With `CS(=O)(=O)c1ccc(-c2ccc3ccc(=O)[nH]c3n2)cc1` [CBK073719], the viability at 28.5 h, 10 µM stood at 86.7%.
Still for that read-out and setting: then `CN1CCC(Oc2ncccc2OCc2ccccc2)CC1` [CBK036311], with 97.4%; and `O=C(O)c1cccnc1SC1CC(=O)N(Cc2ccccc2)C1=O` (centres unmarked) [CBK263375], with 119%; and `COc1ccccc1N1CCN(CC(=O)Nc2cc(Cl)ccc2C)CC1` [CBK270087], with 105%.
Take `Cn1nccc1CNCc1c(Br)cc(F)c(F)c1N1CCCCC1` [CBK306284]: the viability at 28.5 h, 10 µM was determined as 92.8%.
As to `S=C(NCCc1ccc(Cl)cc1)NCc1ccco1` [CBK266812], the viability at 28.5 h, 10 µM was found to be 83.3%.
As for `COc1cccc(C(=O)N2Cc3ccccc3CC2C(=O)O)c1` (centres unmarked) [CBK287150], the viability at 28.5 h, 10 µM worked out at 102%.
Turning to `COc1cc(C(c2nnnn2C2CCCCC2)N2CCN(C)CC2)cc(OC)c1OC` (centres unmarked) [CBK142338C], the viability at 28.5 h, 10 µM amounted to 98.3%.
With `CC(=O)N[C@H]1CO[C@H]2[C@@H]1OC[C@@H]2Nc1nccc(-c2cccc(F)c2)n1` [CBK289534], the viability at 28.5 h, 10 µM is 99.3%.
With `Nc1ncc(-c2ccco2)nc1N1CCOCC1` [CBK063456], the viability at 28.5 h, 10 µM turned out to be 80.2%.
As for `CSc1cccc(NC(=S)N2CCC(N(C)C(C)C)CC2)c1` [CBK294463], the viability at 28.5 h, 10 µM was determined as 86.8%.
For `CCN(CC)S(=O)(=O)c1ccc(Nc2nc3ccc(Cl)cc3n3cnnc23)cc1` [CBK268259], the viability at 28.5 h, 10 µM stood at 87.6%.
For the compound `CCNC(=O)C1(NC(=O)Cc2cn3cccc(C)c3n2)CCCCC1` [CBK304933], the viability at 28.5 h, 10 µM came out at 106%.
In the case of `Cc1cn(C[C@H](NC(=O)c2cccc(F)c2)C(=O)O)c(=O)[nH]c1=O` [CBK289667], the viability at 28.5 h, 10 µM was 109%.
The same measure, in the same setting: then `COc1ccc([C@@]23CC[C@H](NC(=O)c4[nH]cnc4C)C[C@@H]2N(C)CC3)cc1OC` [CBK038097], with 118%; and `Cn1cc(-c2nc(C3COCCN3Cc3ccc(F)cc3)no2)cn1` (centres unmarked) [CBK305391], with 97.7%; and `CC1CC1C(=O)NCC(=O)N1CCN(S(=O)(=O)c2ccccc2[N+](=O)[O-])CC1` (centres unmarked) [CBK296747], with 90.4%.
Still for that read-out and setting: the value for `CC(=O)NCC1CC(N2CCSCC2)=NO1` (centres unmarked) [CBK010367] was 85%.
Turning to `O=C(c1ccccc1)c1ccc2[nH]c(-c3ccc(NC(=O)c4ccccc4Cl)cc3)nc2c1` [CBK262706], the viability at 28.5 h, 10 µM was 83.7%.
Regarding `COCCc1nsc(N2CCC(N(C)c3cccnn3)CC2)n1` [CBK304701], the viability at 28.5 h, 10 µM was 94.1%.
As for `O=C(NC(Cc1cccs1)c1nccs1)c1ccncc1` (centres unmarked) [CBK285134], the viability at 28.5 h, 10 µM stood at 93.9%.
Take `Cc1cccc2c3c([nH]c12)C1(CCN(CC2CC2)C1)NCC3` (centres unmarked) [CBK039520]: the viability at 28.5 h, 10 µM turned out to be 95.8%.
On the same count and under the same terms, then `OC1CCC(Nc2cncc(-c3cccc(Cl)c3)n2)CC1` (centres unmarked) [CBK066031], with 91%.
For `Cc1ccc2oc(C(=O)Nc3ccc(-n4cnnn4)cc3)c(C)c2c1` [CBK287804], the viability at 28.5 h, 10 µM stood at 88.1%.
In the case of `Cc1ccc(CNC(=O)CSc2nc(C)c(C)c(=O)[nH]2)cc1` [CBK287735], the viability at 28.5 h, 10 µM came out at 92.8%.
For the compound `COc1ccc(/C=C/c2nc(C#N)c(NCc3cccnc3)o2)cc1OC` [CBK269240], the viability at 28.5 h, 10 µM is 91.3%.
For the compound `O=C(NCCN1CCC(O)(c2cccc(F)c2)CC1)C1CC=CCC1` (centres unmarked) [CBK282451], the viability at 28.5 h, 10 µM was determined as 101%.
Turning to `O=c1[nH]nc2c(Sc3cccc(F)c3)nccn12` [CBK288508], the viability at 28.5 h, 10 µM came to 90.4%.
With `CS(=O)(=O)c1ccc(Cn2ccnc(N3CCN(C(=O)c4ccc5occc5c4)CC3)c2=O)cc1` [CBK153777], the viability at 28.5 h, 10 µM is 90.8%.
For `CN(Cc1nc(-c2ccccc2)no1)C(=O)COCC1CCCCO1` (centres unmarked) [CBK307643], the viability at 28.5 h, 10 µM came to 106%.
With `CN(C)C(=O)C1(c2ccccc2)CCNC1` (centres unmarked) [CBK023394C], the viability at 28.5 h, 10 µM was 114%.
Still for that read-out and setting: then `C[C@H](c1ccccc1)n1c(=O)[nH]c2ncc(-c3cccc(C(=O)NCCN(C)C)c3)nc21` [CBK064204], with 96.5%; and `COCCNC(=O)c1ccc(-c2ccc(OC)cc2)nc1N1CCN(C(=O)c2ccco2)CC1` [CBK106010], with 88.1%; and `Cc1cc(CNC(=O)Cn2nc(C)c(C)c2C)on1` [CBK281487], with 95.1%.
In the case of `CCCN(C)Cc1ccc(-c2cn(CC(=O)NCc3ccc(OCC(F)F)cc3)nn2)cc1` [CBK166365], the viability at 28.5 h, 10 µM was 106%.
Consider `O=C(c1ccc2[nH]c(=O)[nH]c2c1)N1CCCC2(CCN(C(=O)c3cc(F)c(F)cc3F)C2)C1` (centres unmarked) [CBK131566], for which the viability at 28.5 h, 10 µM was 106%.
As for `Fc1ccc(N2CCN(Cc3cccc(OCc4ccccc4)c3)CC2)cc1` [CBK261916], the viability at 28.5 h, 10 µM was 94.6%.
Regarding `COc1ccc(CN2CCC(Oc3nccnc3OCCN3CCOCC3)CC2)cc1` [CBK082922T], the viability at 28.5 h, 10 µM is 90.8%.
Regarding `CC1CCc2n[nH]c(C(=O)NCCCC3CCOC3)c2C1` (centres unmarked) [CBK283212], the viability at 28.5 h, 10 µM came out at 102%.
Consider `CCCCc1cc(=O)[nH]c(NCc2ccc(C(F)(F)F)cc2)n1` [CBK003946], for which the viability at 28.5 h, 10 µM is 92.5%.
Regarding `O=C(c1ccc2ncccc2c1)N1CCc2ccccc21` [CBK200403], the viability at 28.5 h, 10 µM is 81.8%.
For the compound `COc1ccc(C(C)C)cc1-c1cnc(N)c(N2CCOCC2)n1` [CBK063384], the viability at 28.5 h, 10 µM stood at 92.1%.
Turning to `Cc1ccc(S(=O)(=O)NC2c3cccc4cccc(c34)C2Sc2nnnn2-c2ccccc2)cc1` (centres unmarked) [CBK265884], the viability at 28.5 h, 10 µM stood at 93.1%.
As for `O=[N+]([O-])c1ccc(N2CCN(S(=O)(=O)c3ccc4ccccc4c3)CC2)cc1` [CBK157773], the viability at 28.5 h, 10 µM came out at 93.6%.
`CNC(=O)CSc1nccnc1N1CCCC1` [CBK107748]: the viability at 28.5 h, 10 µM turned out to be 93.6%.
With `Cc1nn(C)cc1C(=O)NC1CCCC1` [CBK057851], the viability at 28.5 h, 10 µM stood at 112%.
Regarding `CCOC(=O)C1(c2ccccc2)CCN(C(=O)Cc2ccc(Cl)c(Cl)c2)CC1` [CBK132175], the viability at 28.5 h, 10 µM (bulk resorufin, single well) is 113%.
In the case of `Cc1nc(C)n(CCC(=O)NC(C)c2cccs2)n1` (centres unmarked) [CBK282224], the viability at 28.5 h, 10 µM was found to be 105%.
Regarding `CC(c1nc2ccccc2[nH]1)N1CCC2(CC1)NCCc1c2[nH]c2ccccc12` (centres unmarked) [CBK040061], the viability at 28.5 h, 10 µM is 90.3%.
